The record followed here is patent publication US20250235543A1, “MODIFIED PROTEINS AND PROTEIN DEGRADERS” (Cullgen (Shanghai), Inc., priority 2021, published 2025).

One experiment concerns cyclin D1. Nature of the experiment: Cyclin D1 percentage degradation in Calu-1 cells (immunoblotting). In kind it is cell-based. The note with it: 10 μM, 16 hours. The method in brief: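 Cyclin D1 degradation was assessed by western blot. Clarified lysates, obtained by RIPA lysis with inhibitors and centrifugation at 13,000 rpm, were normalized by BCA protein assay and separated by SDS-PAGE. Bands were detected with Western ECL Substrate on a Bio-Rad ChemiDoc MP Imaging system and quantified in Image Lab software to derive percentage degradation.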
(In general: Immunoblotting shows a protein as a band on a membrane.)

A further experiment addresses T1, CDK4 (Homo sapiens, UniProt P11802).
T1 construct: endogenous in cells; host or cells: Calu-1
As to the kind of experiment: CDK4 percentage degradation in Calu-1 cells (immunoblotting). In kind it is cell-based. The note with it: Calu-1 cells, 10 μM, 16 hours; read-out: CDK4 Degradation (10 μM). The procedure, abridged:
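CDK4 degradation was measured by immunoblotting. Cells were washed in cold PBS and lysed in RIPA buffer with inhibitors for 30 min at 4° C., then spun at 13,000 rpm to clear. After BCA protein determination, lysates were heated at 99° C. for 5 min in Laemmli buffer, resolved on SDS-PAGE, imaged on a ChemiDoc MP with ECL substrate, and band intensities quantified.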

T1 sequence (P11802 2-303 limits assumed): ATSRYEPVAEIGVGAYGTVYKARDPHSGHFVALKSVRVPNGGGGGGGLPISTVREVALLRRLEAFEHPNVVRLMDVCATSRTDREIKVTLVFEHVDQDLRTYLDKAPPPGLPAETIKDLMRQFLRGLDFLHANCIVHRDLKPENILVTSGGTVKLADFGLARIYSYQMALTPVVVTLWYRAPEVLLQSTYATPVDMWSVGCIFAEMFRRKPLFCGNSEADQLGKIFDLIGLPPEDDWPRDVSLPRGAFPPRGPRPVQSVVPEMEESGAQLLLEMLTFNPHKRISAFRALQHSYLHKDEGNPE
T1 sequence (P24385 whole entry partner): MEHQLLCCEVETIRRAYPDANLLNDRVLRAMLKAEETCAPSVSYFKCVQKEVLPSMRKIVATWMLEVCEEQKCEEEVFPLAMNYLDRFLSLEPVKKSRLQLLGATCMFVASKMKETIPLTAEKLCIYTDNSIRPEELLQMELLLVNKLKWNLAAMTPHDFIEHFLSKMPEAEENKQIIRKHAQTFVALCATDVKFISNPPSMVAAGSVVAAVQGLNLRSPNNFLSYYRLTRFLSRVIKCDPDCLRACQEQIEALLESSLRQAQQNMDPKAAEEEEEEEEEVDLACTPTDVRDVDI
T1 sequence (Q16531 2-1140 limits assumed, further chain): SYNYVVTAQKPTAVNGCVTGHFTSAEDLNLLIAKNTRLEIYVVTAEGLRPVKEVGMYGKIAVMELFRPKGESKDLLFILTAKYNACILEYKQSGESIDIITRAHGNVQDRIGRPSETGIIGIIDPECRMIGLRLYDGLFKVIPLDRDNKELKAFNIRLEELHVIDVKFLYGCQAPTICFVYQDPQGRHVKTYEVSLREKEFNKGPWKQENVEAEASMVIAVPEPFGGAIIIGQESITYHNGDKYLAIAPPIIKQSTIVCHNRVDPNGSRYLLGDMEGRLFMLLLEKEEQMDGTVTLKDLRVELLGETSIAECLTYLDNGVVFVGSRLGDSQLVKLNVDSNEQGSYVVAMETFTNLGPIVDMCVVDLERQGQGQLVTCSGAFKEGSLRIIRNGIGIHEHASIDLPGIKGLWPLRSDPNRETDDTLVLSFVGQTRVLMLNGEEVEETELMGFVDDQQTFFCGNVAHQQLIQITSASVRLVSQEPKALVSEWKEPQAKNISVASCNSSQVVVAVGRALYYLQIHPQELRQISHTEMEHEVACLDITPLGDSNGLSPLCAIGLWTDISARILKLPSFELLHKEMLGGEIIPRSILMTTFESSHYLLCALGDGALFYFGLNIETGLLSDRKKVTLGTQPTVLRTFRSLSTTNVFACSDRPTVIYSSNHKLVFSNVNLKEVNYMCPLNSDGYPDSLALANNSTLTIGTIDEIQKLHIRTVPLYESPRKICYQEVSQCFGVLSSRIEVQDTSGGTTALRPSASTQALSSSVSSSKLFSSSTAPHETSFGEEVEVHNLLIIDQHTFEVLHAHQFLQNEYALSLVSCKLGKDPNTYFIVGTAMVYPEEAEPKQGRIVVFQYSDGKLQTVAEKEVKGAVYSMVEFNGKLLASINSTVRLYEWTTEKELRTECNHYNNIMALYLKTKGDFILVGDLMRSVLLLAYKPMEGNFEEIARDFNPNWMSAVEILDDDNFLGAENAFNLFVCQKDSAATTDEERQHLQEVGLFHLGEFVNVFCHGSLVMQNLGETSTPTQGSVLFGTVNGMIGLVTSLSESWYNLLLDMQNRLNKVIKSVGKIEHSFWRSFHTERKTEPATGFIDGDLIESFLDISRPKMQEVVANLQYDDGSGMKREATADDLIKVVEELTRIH

As for `Cc1nc(NC(=O)c2ccccc2NC(=O)CCOCCOCCOCCOCCOCCOCCNC(=O)CN2CCN(Cc3ccc(Nc4ncc(F)c(-c5cc(F)c6nc(C)n(C(C)C)c6c5)n4)nc3)CC2)sc1C` [CPD-285, N-(4,5-Dimethylthiazol-2-yl)-2-(1-(4-((6-((5-fluoro-4-(4-fluoro-1-isopropyl-2-methyl-1H-benzo[d]imidazol-6-yl)pyrimidin-2-yl)amino)pyridin-3-yl)methyl)piperazin-1-yl)-2-oxo-6,9,12,15,18,21-hexaoxa-3-azatetracosan-24-amido)benzamide], the “CyclinD1 Degradation (10 μM)” value in the experiment on cyclin D1 is “D (protein percentage degradation < 30%)”. Moreover, the inhibition at 10 µM at CDK4 was less than 30%.
Turning to `Cc1nc(NC(=O)c2ccccc2NC(=O)CNC(=O)CN2CCN(c3ccc(Nc4ncc5cc(C(=O)N(C)C)n(C6CCCC6)c5n4)nc3)CC2)sc1C` [CPD-286, 7-Cyclopentyl-2-((5-(4-(2-((2-((2-((4,5-dimethylthiazol-2-yl)carbamoyl)phenyl)amino)-2-oxoethyl)amino)-2-oxoethyl)piperazin-1-yl)pyridin-2-yl)amino)-N,N-dimethyl-7H-pyrrolo[2,3-d]pyrimidine-6-carboxamide], the “CyclinD1 Degradation (10 μM)” value with cyclin D1 is listed as “A (protein percentage degradation >= 80%)”. On CDK4, the inhibition at 10 µM lay within 50 to 80%.
Turning to `Cc1nc(NC(=O)c2ccccc2NC(=O)CCNC(=O)CN2CCN(c3ccc(Nc4ncc5cc(C(=O)N(C)C)n(C6CCCC6)c5n4)nc3)CC2)sc1C` [CPD-287, 7-Cyclopentyl-2-((5-(4-(2-((3-((2-((4,5-dimethylthiazol-2-yl)carbamoyl)phenyl)amino)-3-oxopropyl)amino)-2-oxoethyl)piperazin-1-yl)pyridin-2-yl)amino)-N,N-dimethyl-7H-pyrrolo[2,3-d]pyrimidine-6-carboxamide], in the experiment with cyclin D1, the “CyclinD1 Degradation (10 μM)” value is “A (protein percentage degradation >= 80%)”. For the same molecule, the inhibition at 10 µM on CDK4 lay in the range of 30 to 50%.
As to `Cc1nc(NC(=O)c2ccccc2NC(=O)CCCNC(=O)CN2CCN(c3ccc(Nc4ncc5cc(C(=O)N(C)C)n(C6CCCC6)c5n4)nc3)CC2)sc1C` [CPD-288, 7-Cyclopentyl-2-((5-(4-(2-((4-((2-((4,5-dimethylthiazol-2-yl)carbamoyl)phenyl)amino)-4-oxobutyl)amino)-2-oxoethyl)piperazin-1-yl)pyridin-2-yl)amino)-N,N-dimethyl-7H-pyrrolo[2,3-d]pyrimidine-6-carboxamide], the “CyclinD1 Degradation (10 μM)” value with cyclin D1 is “A (protein percentage degradation >= 80%)”. In addition, the inhibition at 10 µM on CDK4 fell in the range of 50 to 80%.
Take `Cc1nc(NC(=O)c2ccccc2NC(=O)CCCCNC(=O)CN2CCN(c3ccc(Nc4ncc5cc(C(=O)N(C)C)n(C6CCCC6)c5n4)nc3)CC2)sc1C` [CPD-289, 7-Cyclopentyl-2-((5-(4-(2-((5-((2-((4,5-dimethylthiazol-2-yl)carbamoyl)phenyl)amino)-5-oxopentyl)amino)-2-oxoethyl)piperazin-1-yl)pyridin-2-yl)amino)-N,N-dimethyl-7H-pyrrolo[2,3-d]pyrimidine-6-carboxamide]: in the experiment with cyclin D1, the “CyclinD1 Degradation (10 μM)” value is listed as “A (protein percentage degradation >= 80%)”. Besides, the inhibition at 10 µM at CDK4 fell in the range of 30 to 50%.
Consider `Cc1nc(NC(=O)c2ccccc2NC(=O)CCCCCNC(=O)CN2CCN(c3ccc(Nc4ncc5cc(C(=O)N(C)C)n(C6CCCC6)c5n4)nc3)CC2)sc1C` [CPD-290, 7-Cyclopentyl-2-((5-(4-(2-((6-((2-((4,5-dimethylthiazol-2-yl)carbamoyl)phenyl)amino)-6-oxohexyl)amino)-2-oxoethyl)piperazin-1-yl)pyridin-2-yl)amino)-N,N-dimethyl-7H-pyrrolo[2,3-d]pyrimidine-6-carboxamide], for which the “CyclinD1 Degradation (10 μM)” value in the experiment on cyclin D1 is “B (protein percentage degradation < 80%, and >= 50%)”. Further, on CDK4, the inhibition at 10 µM lay in the range of 30 to 50%.
